Results taken from US20250339387A1, “MITOXANTHRONE DERIVATIVES AS RAS INHIBITORS” (KHR Biotec GmbH, priority 2022, published 2025).

Experiments:
Assay type in all cases: cell-based
[1] = test system: KRAS mutants (G12V, G12C, G12D, G12C/Y96D, G13C, G13D, G13S, Q61K and Q61R); test: NanoBiT assay for RAS GTP-loading in HeLa cells, LgBit-KRAS mutants and SmBit-CRAF-RBD; details: 2 h in serum-free DMEM, normalized to DMSO
Protocol: NanoBiT assay for the RAS GTP-loading was performed in HeLa cells transfected with LgBit-KRAS mutants and SmBit-CRAF-RBD. Cells were treated with Mitoxantrone HCl for 2 h in serum-free DMEM. After incubation, the substrate for NanoLuc was added, and the luminescence was measured in a multiplate reader. Data were normalized to cells transfected with the indicated mutant and exposed to DMSO for 2 h. DMSO-treated cells were set as 1. The bars represent mean±SEM from 3 independent experiments.

[2] = test system: BaF3 KRAS G12C/Y96D cells; test: MTT assay for cell viability in 96 well cell culture plate; details: Mus musculus, 48 h treatment
[3] = molecular target: T1, KRAS G12V (Homo sapiens, UniProt P01116, G12V); test: NanoBit assay for RAS activation (LgBiT-RAS / SmBiT-CRAF RBD); details: 2 h with inhibitor in serum free DMEM
T1 construct: K, N and HRAS G12V (full length) was cloned with Xho I and Bgl Ito LgBit; expressed in transfected cells
Protocol: (§1) N-terminal LgBiT and C-terminal SmBiT construct was purchased from Promega and K, N and HRAS G12V (full length) was cloned with Xho I and Bgl Ito LgBit and CRAF Ras binding domain (1-149) was cloned with EcoRI and Bgl II to SmBit. For transfections, 1 μg or 2 μg of (12 well/6 well) plasmids were transfected into cells with 0.5 mM of PEI reagent in 100 μl or 200 μl PBS. One day after transfection, cells were harvested and seeded into 96 well white plates, half area (Greiner). After an additional day the medium was changed to serum free DMEM and the cells were incubated for 2 h with inhibitor. NanoGlo assay was performed according to the manufacturer's instructions. The luminescence was measured using Tecan infinite (Tecan).

[4] = molecular target: T2, HRAS G12V (Homo sapiens, UniProt P01112, G12V); test: as above; details: 2 h with inhibitor in serum free DMEM
T2 construct: K, N and HRAS G12V (full length) was cloned with Xho I and Bgl Ito LgBit; expressed in transfected cells
Protocol: as §1

[5] = molecular target: T3, NRAS G12V (Homo sapiens, UniProt P01111, G12V); test: as above; details: 2 h with inhibitor in serum free DMEM
T3 construct: K, N and HRAS G12V (full length) was cloned with Xho I and Bgl Ito LgBit; expressed in transfected cells
Protocol: as §1

[6] = test system: BaF3 KRAS G12C cells; test: MTT assay for cell viability in 96 well cell culture plate; details: Mus musculus, 48 h treatment
[7] = test system: ASPC1 cells; test: Soft agar colony formation assay with MTT readout; details: Homo sapiens, growth in soft agar, colonies stained with MTT, absorbance 570 nm, 3 independent experiments
Protocol: (§2) Metabolic activity was quantified using Cell Proliferation Kit I (Roche, Basel, Switzerland). Cells were seeded in 96-well cell culture plates, using 5000 cells per well for NCI-H358 cells. After treatment, 10 μl of MTT solution was added and incubated for 2 h in CO2 incubator. Then 100 μl of solubilization buffer was added to each well and incubated overnight in CO2 incubator. Cell viability, assessed by the amount of metabolized MTT, was quantified by measuring absorbance at 570 nm.
(§3) MTT assay for the growth of different tumor cell lines with RAS mutations in soft agar with Mitoxantrone hydrochloride. Shown are data from three independent experiments. NCI-H358, H358, H2122, ASPC-1, HCT-116, T24 and HT1080 cells were used for the soft agar colony formation assay. After the treatment with Mitoxantrone HCl, the colonies were stained with MTT and the value was quantified by measuring absorbance at 570 nm after solubilization. The results represent mean±SEM from 3 independent experiments.

[8] = test system: HT1080 cells; test: Soft agar colony formation assay with MTT readout; details: Homo sapiens, HT-1080; growth in soft agar, colonies stained with MTT, absorbance 570 nm, 3 independent experiments
Protocol: as §2, §3

[9] = test system: NCI-H2122 cells; test: Soft agar colony formation assay with MTT readout; details: Homo sapiens, growth in soft agar, colonies stained with MTT, absorbance 570 nm, 3 independent experiments
Protocol: as §2, §3

[10] = test system: HCT-116 cells; test: Soft agar colony formation assay with MTT readout; details: Homo sapiens, growth in soft agar, colonies stained with MTT, absorbance 570 nm, 3 independent experiments
Protocol: as §2, §3

[11] = test system: T24 cells; test: Soft agar colony formation assay with MTT readout; details: Homo sapiens; growth in soft agar, colonies stained with MTT, absorbance 570 nm, 3 independent experiments
Protocol: as §2, §3

[12] = test system: NCI-H358 cells; test: Soft agar colony formation assay with MTT readout; details: Homo sapiens, growth in soft agar, colonies stained with MTT, absorbance 570 nm, 3 independent experiments
Protocol: as §2, §3

[13] = test system: sNF96.2 cells; test: RASOpathie-Model, MTT assay for cell viability in 96 well cell culture plate; details: 48 h treatment
Protocol: FIG. 5: RASOpathie-Model of Mitoxantrone HCl; MTT assay for cell viability in 96 well cell culture plate
Cells were treated with Mitoxantrone HCl for 48 h and cell viability was evaluated by MTT assay. DMSO-treated cells were set as 1. The results shown are mean±SEM from 3 independent experiments.

T3 sequence (P01111 whole entry G12V): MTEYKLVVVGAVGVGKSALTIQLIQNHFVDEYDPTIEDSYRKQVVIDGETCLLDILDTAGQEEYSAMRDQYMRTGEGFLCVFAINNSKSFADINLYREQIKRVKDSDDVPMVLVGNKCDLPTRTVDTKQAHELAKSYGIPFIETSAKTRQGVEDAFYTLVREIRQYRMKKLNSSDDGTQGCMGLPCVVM

Structure (SMILES): Cl.Cl.O=C1c2c(O)ccc(O)c2C(=O)c2c(NCCNCCO)ccc(NCCNCCO)c21 [Mitoxantrone HCl, 1,4-dihydroxy-5,8-bis({2-[(2-hydroxy-ethyl)amino]ethyl}amino)-9,10-anthrachinone dihydrochloride]
- RAS activation / GTP-loading of KRAS mutants (NanoBiT luminescence) [1]: inhibits
- IC50 [2]: 24 µM
- RAS activation, K-RAS (NanoBit luminescence) [3]: inhibits
- RAS activation, H-RAS (NanoBit luminescence) [4]: inhibits
- RAS activation, N-RAS (NanoBit luminescence) [5]: inhibits
- IC50 [6]: 24.2 µM
- IC50 [7]: 0.6 µM
- IC50 [8]: 0.13 µM
- IC50 [9]: 0.25 µM
- IC50 [10]: 0.27 µM
- IC50 [11]: 0.43 µM
- IC50 [12]: 1.5 µM
- IC50 [13]: 3.71 µM
